Laboratory results as given in patent US20260250318A1, “COMPOSITIONS AND METHODS FOR CROSSING THE BLOOD BRAIN BARRIER” (VOYAGER THERAPEUTICS, INC., priority 2022, published 2026).

Each sequence was assayed on brain (assay: Matured TTM-001 and TTM-002 variants, NGS enrichment in mouse brain). Settings: NGS fold-enrichment, mouse brain, relative to AAV9 control.
Type: in vivo, mice

Compared with KSINGHDSPHKSGQIQHT, KTVNGHDSPHKSGQNLHT is lower in “Fold Enrichment relative to AAV9, Brain (Mouse)” value: 13.872 fold for the first, 11.363 fold for the second.

Same assay, conditions: mouse brain; relative to AAV9 control

First: KTVPTSGSPHSKAQNQQT
Second: KTINGSGSPHSKAQSLQI
The “Fold Enrichment relative to AAV9, Brain (Mouse)” value of the first is higher: 102.651 fold for the first, 51.543 fold for the second.

Going from KTINGSGSPHSKAQLPST to KTWQNSGSPHSKAQNQQT, the “Fold Enrichment relative to AAV9, Brain (Mouse)” value rises from 84.918 fold to 114.258 fold.

First: KTDVGSGSPHSKAQNQQT
Second: KNSLGSGSPHSKAQNQQT
The “Fold Enrichment relative to AAV9, Brain (Mouse)” value of the first is higher: 115.774 fold for the first, 101.942 fold for the second.

Each sequence was assayed on brains, heart, liver, muscle, and DRG of the NHPs (assay: Maturation of TTM-001 and TTM-002 capsids, NGS enrichment in NHP tissues). Settings: NGS fold-enrichment of RNA, NHP brain, relative to AAV9 control.
Type: in vivo
Summary of the method: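 Variants carry mutations within and flanking the loop IV peptide insert: positions 450–466 were triplet-randomized, while positions 449–466 received low-frequency point mutations. The combined pool went into two NHPs, and each peptide was scored by NGS enrichment ratio against AAV9.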

Going from KSINGHDSPHKSGQIQHT to KTVNGHDSPHKSGQNLHT, the “Fold Enrichment relative to AAV9, Brain (NHP)” value rises from 87.598 fold to 88.080 fold.

Same assay, conditions: NGS fold-enrichment of matured AAV capsid variants; NHP brain, RNA; relative to AAV9 control

Going from KTVPTSGSPHSKAQNQQT to KTINGSGSPHSKAQSLQI, the “Fold Enrichment relative to AAV9, Brain (NHP)” value rises from 51.348 fold to 53.778 fold.

First: KTINGSGSPHSKAQLPST
Second: KTWQNSGSPHSKAQNQQT
The “Fold Enrichment relative to AAV9, Brain (NHP)” value of the first is higher: 56.238 fold for the first, 55.245 fold for the second.

Going from KTDVGSGSPHSKAQNQQT to KNSLGSGSPHSKAQNQQT, the “Fold Enrichment relative to AAV9, Brain (NHP)” value rises from 51.849 fold to 56.621 fold.

Same assay, conditions: NGS fold-enrichment, NHP DRG, relative to AAV9 control

KSINGHDSPHKSGQIQHT and KTVNGHDSPHKSGQNLHT are the same in “Fold Enrichment relative to AAV9, DRG (NHP)” value: 0.000 fold for the first, 0.000 fold for the second.

Same assay, conditions: NGS fold-enrichment, NHP heart, relative to AAV9 control

First: KSINGHDSPHKSGQIQHT
Second: KTVNGHDSPHKSGQNLHT
The “Fold Enrichment relative to AAV9, Heart (NHP)” value of the first is higher: 0.480 fold for the first, 0.080 fold for the second.

Same assay, conditions: NGS fold-enrichment, NHP liver DNA, relative to AAV9 control

Compared with KSINGHDSPHKSGQIQHT, KTVNGHDSPHKSGQNLHT is lower in “Fold Enrichment relative to AAV9, Liver DNA (NHP)” value: 0.347 fold for the first, 0.039 fold for the second.

Same assay, conditions: NGS fold-enrichment, NHP liver RNA, relative to AAV9 control

First: KSINGHDSPHKSGQIQHT
Second: KTVNGHDSPHKSGQNLHT
The “Fold Enrichment relative to AAV9, Liver RNA (NHP)” value of the first is higher: 0.714 fold for the first, 0.000 fold for the second.

Same assay, conditions: NGS fold-enrichment, NHP muscle, relative to AAV9 control

KSINGHDSPHKSGQIQHT and KTVNGHDSPHKSGQNLHT are the same in “Fold Enrichment relative to AAV9, Muscle (NHP)” value: 0.000 fold for the first, 0.000 fold for the second.

Same assay, conditions: NHP DRG; relative to AAV9 control

Compared with KTVPTSGSPHSKAQNQQT, KTINGSGSPHSKAQSLQI is lower in “Fold Enrichment relative to AAV9, DRG (NHP)” value: 0.013 fold for the first, 0.000 fold for the second.

Compared with KTINGSGSPHSKAQLPST, KTWQNSGSPHSKAQNQQT is lower in “Fold Enrichment relative to AAV9, DRG (NHP)” value: 0.005 fold for the first, 0.000 fold for the second.

KTDVGSGSPHSKAQNQQT and KNSLGSGSPHSKAQNQQT are the same in “Fold Enrichment relative to AAV9, DRG (NHP)” value: 0.000 fold for the first, 0.000 fold for the second.

Same assay, conditions: NHP heart; relative to AAV9 control

Going from KTVPTSGSPHSKAQNQQT to KTINGSGSPHSKAQSLQI, the “Fold Enrichment relative to AAV9, Heart (NHP)” value rises from 0.000 fold to 0.186 fold.

First: KTINGSGSPHSKAQLPST
Second: KTWQNSGSPHSKAQNQQT
The “Fold Enrichment relative to AAV9, Heart (NHP)” value of the first is higher: 4.258 fold for the first, 0.000 fold for the second.

Going from KTDVGSGSPHSKAQNQQT to KNSLGSGSPHSKAQNQQT, the “Fold Enrichment relative to AAV9, Heart (NHP)” value rises from 0.007 fold to 0.028 fold.

Same assay, conditions: NHP liver, DNA; relative to AAV9 control

Compared with KTVPTSGSPHSKAQNQQT, KTINGSGSPHSKAQSLQI is lower in “Fold Enrichment relative to AAV9, Liver DNA (NHP)” value: 0.338 fold for the first, 0.047 fold for the second.

Compared with KTINGSGSPHSKAQLPST, KTWQNSGSPHSKAQNQQT is higher in “Fold Enrichment relative to AAV9, Liver DNA (NHP)” value: 0.185 fold for the first, 0.265 fold for the second.

Going from KTDVGSGSPHSKAQNQQT to KNSLGSGSPHSKAQNQQT, the “Fold Enrichment relative to AAV9, Liver DNA (NHP)” value falls from 0.560 fold to 0.162 fold.

Same assay, conditions: NHP liver, RNA; relative to AAV9 control

Compared with KTVPTSGSPHSKAQNQQT, KTINGSGSPHSKAQSLQI is lower in “Fold Enrichment relative to AAV9, Liver RNA (NHP)” value: 1.017 fold for the first, 0.022 fold for the second.

Going from KTINGSGSPHSKAQLPST to KTWQNSGSPHSKAQNQQT, the “Fold Enrichment relative to AAV9, Liver RNA (NHP)” value falls from 1.040 fold to 0.111 fold.

Compared with KTDVGSGSPHSKAQNQQT, KNSLGSGSPHSKAQNQQT is lower in “Fold Enrichment relative to AAV9, Liver RNA (NHP)” value: 0.385 fold for the first, 0.308 fold for the second.

Same assay, conditions: NHP muscle; relative to AAV9 control

KTVPTSGSPHSKAQNQQT and KTINGSGSPHSKAQSLQI are the same in “Fold Enrichment relative to AAV9, Muscle (NHP)” value: 0.000 fold for the first, 0.000 fold for the second.

Compared with KTINGSGSPHSKAQLPST, KTWQNSGSPHSKAQNQQT is lower in “Fold Enrichment relative to AAV9, Muscle (NHP)” value: 0.001 fold for the first, 0.000 fold for the second.

KTDVGSGSPHSKAQNQQT and KNSLGSGSPHSKAQNQQT are the same in “Fold Enrichment relative to AAV9, Muscle (NHP)” value: 0.000 fold for the first, 0.000 fold for the second.
